According to patent publication US12697313B2, “Methods of treating anemia using formoterol or a pharmaceutically acceptable salt thereof” (Dana-Farber Cancer Institute, Inc., priority 2022, dated 2026):
“Also recorded” adds a separate entry of the source.

Legend:
primary human HSPCs = assay: Mitochondrial functions in primary human HSPCs (mtDNA genes, TMRE, MitoTracker); format: cell-based
Protocol: Given the involvement of β2-AR in erythropoiesis, it was hypothesized that administration of long-acting selective β2-AR agonist FF might promote erythroid differentiation. To address this, primary human HSPCs were treated with varying doses of FF (Selleckchem). […] To ascertain if FF administration plays a role further upstream in the erythroid differentiation pathway, methylcellulose colony-formation assays were performed.
TMRE (T669, Invitrogen) and Mitotracker® (M22426, Life Technologies) and MitoSox® (M36008, Life Technologies) staining were performed as per the manufacturer's instructions.

[1] = tested on: PHZ-induced lethal hemolytic anemia mice; assay: PHZ-mediated lethal hemolytic anemia, FF i.p.; format: in vivo; settings: for body weights: 0.1/0.3 mg/kg
Protocol: To this end, 10-12 week old male C57BL/6J mice were first treated with a single lethal dose of 150 mg/kg PHZ followed by daily i.p. injections of either vehicle or 0.1/0.3 mg/kg FF. […] All control mice (n=5) were moribund and died by 3 days of lethal PHZ dose, whereas 3-4 mice in 0.1/0.3 mg/kg FF treatment groups are still surviving post 2 weeks of lethal dose (FIG. 42A). […] FF injections were stopped after 7 days of lethal PHZ treatment and it was observed that the body weights of mice were held steady (FIG. 42B). The body weights and survival of these mice are being monitored daily. This unexpected finding prompted us to repeat this lethal hemolytic anemia model in the female mice. […] The FF treatment lasted for 7 days after lethal PHZ dose and the body weights and survival of these mice are being monitored daily.

[2] = tested on: phenylhydrazine (PHZ)-treated mice; assay: FF oral gavage in PHZ-treated mice at sub-lethal dose of 60 mg/kg; format: in vivo
naive wild-type mice = assay: FF in naive wild-type mice without PHZ stress (FIG. 62 setup); format: in vivo; settings: for % change in body weights: FIG. 63
[3] = tested on: NUP98-HOXD13 transgenic mice; assay: FF i.p. in MDS/AML mice (NUP98-HOXD13 transgenic); format: in vivo; settings: 0.3 mg/kg thrice weekly i.p.
Protocol: FIG. 71A, FIG. 71B and FIG. 71C show FF treatment at a low dose of 0.3 mg/kg thrice weekly (i.p.) alleviates RBC parameters in PB of MDS/AML mice, such as RBCs, hemoglobin (Hb) and hematocrit (HCT%). * p<0.05, ** p <0.01, **** p<0.0001, ANOVA. n=5-7 mice per group. Veh: vehicle; LC: littermate control.

Apcmin mice = assay: FF i.p. in Apcmin mice (intestinal adenoma model that develops anemia); format: in vivo
Protocol: This is a mouse model of intestinal adenoma that develops anemia. FF treatment at a low dose of 0.3 mg/kg daily (i.p.) alleviates RBC parameters, such as (FIG. 74A) RBCs (FIG. 74B) hematocrit% (HCT%) and (FIG. 74C) hemoglobin (Hb) in Apcmin mice that spontaneously develop anemia at ~3 months age. * p<0.05, *** p<0.001, 2-way ANOVA. n=5-6 mice per group. Comparisons are shown in between Apcmin+FF versus Apcmin+Veh. Veh: vehicle; LC: littermate control mice.

[4] = tested on: erythroid progenitors / bone marrow cells of wild-type mice; assay: Gene expression (bulk RNA sequencing, qPCR) in FF-treated naive wild-type mice; format: in vivo
Excerpt: Data represented as mean±SEM. All comparisons are done with respect to Vehicle (DMSO-treated).
This example describes the effects of formoterol fumarate treatment on expression of genes that have been linked to erythropoiesis including Klf9 (Ren et al., (2018) Yi Chuan. 40(11):998-1006 and Zhang et al., (2017) Blood 130(20):2161-2170), Klf13, Klf11 (Emery (2007) J. Cell. Biochem 100(4):1045-55), Hif1a (Wellmann, et al., (2004) J. Cell Sci. 117:175-94; Feng et al., (2022) Nature 610(7933):783-790; and Chen et al., (2019) N Engl J Med 381:1011-1022), Epas1 (Scortegagna et al. (2003) Blood 102:1634-40), Ddit4 (Yoshikawa (2023) Cancer Biomark. 37(4): 217-225), Cirbp, and Rora (Kim et al. (2008) Arterioscler Throm Vasc Biol 28(10):1796-802 and Chauvet et al., (2004) Biochem. J. 384:79-85). Differential gene expression in naïve wild-type mice was analyzed by bulk RNA sequencing according to an example workflow as depicted in FIG. 86.

[5] = female, PHZ 120 mg/kg, FF 0.1 mg/kg, n=5
[6] = female, PHZ 120 mg/kg, FF 0.3 mg/kg, n=5
[7] = male, PHZ 150 mg/kg, FF 0.1 mg/kg, n=5
[8] = male, PHZ 150 mg/kg, FF 0.3 mg/kg, n=5
[9] = 14 days of daily o.g., PHZ 60 mg/kg, FIG. 59

COc1ccc(C[C@@H](C)NC[C@H](O)c2ccc(O)c(NC=O)c2)cc1.O=C(O)/C=C/C(=O)O [FF, (E)-but-2-enedioic acid;N-[2-hydroxy-5-[(1R)-1-hydroxy-2-[[(2R)-1-(4-methoxyphenyl)propan-2-yl]amino]ethyl]phenyl]formamide]
mitochondrial membrane potential (TMRE staining) (primary human HSPCs; FIG. 5B): elevated mitochondrial mass and membrane potential; also recorded: enhances mitochondrial membrane potential
mitochondrial mass (MitoTracker staining) (primary human HSPCs; FIG. 5C): elevated mitochondrial mass and membrane potential; also recorded: increases mitochondrial mass
expression of mitochondrial DNA encoded genes MT-ND1, MT-CytB, MT-CO1, MT-ATP6 (primary human HSPCs; vs DMSO, FIG. 5A): enhanced expression of mtDNA encoded genes required for OXPHOS; also recorded: enhances expression of mitochondrial DNA encoded genes
survival (Kaplan-Meier) ([1]; female mice, PHZ 120 mg/kg, FF 0.1/0.3 mg/kg, FIG. 42C): provided prominent survival benefits
body weights ([1]; female, PHZ 120 mg/kg, FIG. 42D): similarly revived body weights; also recorded: steadily increases body weights of female mice
mice died on day 2 [1, 5]: 1 mouse
mice still surviving post lethal PHZ dose [1, 5]: 4 mice
mice died on day 2 [1, 6]: 2 mice
mice still surviving post lethal PHZ dose [1, 6]: 3 mice
survival (Kaplan-Meier) ([1]; male mice, PHZ 150 mg/kg, FF 0.1/0.3 mg/kg daily i.p., FIG. 42A): produced striking survival benefits
mice still surviving post 2 weeks of lethal dose ([1]; male, PHZ 150 mg/kg, 0.1/0.3 mg/kg FF groups, n=5): 3-4 mice
body weights ([1]; male, PHZ 150 mg/kg, FIG. 42B): produced remarkable revival in body weights; also recorded: steadily increases body weights of male mice
mice died on day 2 [1, 7]: 2 mice
mice still surviving post lethal PHZ dose [1, 7]: 3 mice
mice died on day 2 [1, 8]: 1 mouse
mice still surviving post lethal PHZ dose [1, 8]: 4 mice
granulocyte monocyte progenitors (GMP) ([2]; 14 days of daily o.g., FIG. 60): does not affect granulocyte monocyte progenitors (GMP)
megakaryocytic progenitors (MkP) ([2]; 14 days of daily o.g., FIG. 60): increases megakaryocytic progenitors (MkP)
mitochondrial membrane potential (TMRE staining) in BMPs [2, 9]: increases viability and mitochondrial membrane potential
viability of BMPs [2, 9]: increases viability and mitochondrial membrane potential
body weights ([2]; o.g., PHZ 60 mg/kg, FIG. 56): does not affect body weights
RBC parameters (HCT % and Hb) in peripheral blood ([2]; o.g., PHZ 60 mg/kg, FIG. 57): increases RBC parameters
WBC and platelets in peripheral blood ([2]; o.g., PHZ 60 mg/kg, FIG. 58): does not affect WBC and platelets
% change in body weights (naive wild-type mice; 0.1/0.3/0.5 mg/kg): increases body weights
viability of BM progenitors (naive wild-type mice; 0.1/0.3/0.5 mg/kg, FIG. 67A): substantially increases
LS-K cells in the BM (naive wild-type mice; 0.1/0.3/0.5 mg/kg, FIG. 67B): substantially increases
MEP and MkP in BM (naive wild-type mice; 0.1/0.3/0.5 mg/kg, FIG. 68A-68B): significantly elevates megakaryocyte erythroid progenitors (MEP) and megakaryocytic progenitors (MkP)
expression of erythroid genes EPOR, ASXL1, NFE2 in sorted erythroid progenitors (naive wild-type mice; 0.1/0.3/0.5 mg/kg, FIG. 70A-70C): substantially increases the expression of erythroid genes
expression of ADRB2 in sorted erythroid progenitors (naive wild-type mice; 0.1/0.3/0.5 mg/kg, FIG. 70D): does not influence the expression of β2-AR-encoding gene ADRB2
% change in body weights (naive wild-type mice; 0.1 and 0.3 mg/kg groups): did not show statistical significance
HCT% (naive wild-type mice; 0.1 and 0.5 mg/kg groups, FIG. 64C): did not show statistical significance
RBC parameters (RBC numbers, Hb, HCT %) in peripheral blood (naive wild-type mice; FIG. 64): enhances and sustains RBC parameters
WBC numbers and platelet counts (naive wild-type mice; FIG. 65A, 65C): does not influence
monocyte counts in peripheral blood (naive wild-type mice; FIG. 65B): modestly impacts monocyte counts
mitochondrial biogenesis in BMPs (MitoTracker staining) (naive wild-type mice; FIG. 66A): enhances mitochondrial biogenesis
mitochondrial membrane potential in BMPs (TMRE staining) (naive wild-type mice; FIG. 66B): enhances mitochondrial membrane potential
mitochondrial superoxide production in BMPs (MitoSox staining) (naive wild-type mice; FIG. 66C): significantly reduces mitochondrial superoxide production
RBC parameters (RBCs, Hb, HCT%) in PB ([3]; FIG. 71): elevates RBC parameters
platelets and WBCs in peripheral blood ([3]; FIG. 72A-72B): has no impact
apoptosis (Annexin V staining) in the bone marrow ([3]; FIG. 72C): has no impact
erythroid progenitors in the BM ([3]; FIG. 73A): elevates erythroid progenitors
GMP and MkP in the BM ([3]; FIG. 73B-73C): does not affect
RBC parameters (RBCs, HCT%, Hb) (Apcmin mice; 0.3 mg/kg daily i.p., FIG. 74): elevates RBC parameters
body weight (Apcmin mice; FIG. 75): modestly increases body weight
HIF-1α expression in bone marrow cells ([4]; 0.5mg/kg ip 3× weekly, qPCR, FIG. 88A): enhances HIF-1α expression; also recorded: both significantly increased
VEGFA expression in bone marrow cells ([4]; 0.5mg/kg ip 3× weekly, qPCR, FIG. 88B): enhances; also recorded: both significantly increased
expression of Klf9, Klf13, Klf11, Hif1a, Epas1, Ddit4, Cirbp, Rora in erythroid progenitors from bone marrow ([4]; bulk RNA sequencing, FF-treated vs vehicle-treated, FIG. 87): increased in FF-treated mice
